# Literature values as cited in US20090311317A1, “MODIFIED RELEASE TOLTERODINE FORMULATIONS” (Capricorn Pharma Inc., priority 2008, published 2009).
# Where a name gives a salt, the structure may show the parent alone.
# How the values were obtained:
# [1] = test system: muscarinic receptors of the salivary gland; conditions: versus oxybutynin
# bladder = conditions: versus oxybutynin
smiles,measurement,setting,value
"Cc1ccc(O)c([C@@H](CCN(C(C)C)C(C)C)c2ccccc2)c1 [tolterodine, (+)-N,N-diisopropyl-3-(2-hydroxy-5-methylphenyl)-3-phenylpropylamine L-hydrogen tartrate]",affinity for muscarinic receptors of the salivary gland relative to oxybutynin,[1],eight times lower
same,potency in the bladder relative to oxybutynin,bladder,equipotent with oxybutynin
